Results as given in patent US11338006B2, “Composition and method for promoting digestive health” (Vidy Herbs, Inc., priority 2018, dated 2022).

What was measured:
male Sprague Dawley rats [1] = test: gastric emptying, phenol red method; assay type: in vivo; settings: 10 mg/kg orally, 20 minutes after phenol red meal; control 64.94%
Description: (§1) A composition of asafoetida and milk thistle extract in a ratio of 1:3 was evaluated for effects on gastric emptying and gastrointestinal transit is Sprague-Dawley rats. Twenty-four male Sprague Dawley (SD) rats (190-200 g) were divided into four groups, each group consisted of six animals with less than 20% mean body weight range. Group I served as control group, Group II referenced standard Domiperidone, Groups III and IV were administered the composition. During experimentation, animals were housed under standard husbandry conditions at a temperature of 22±3° C., relative humidity (30-70%) and a light:dark cycle of 12:12 h. […]
(§2) All treatments were given for seven days daily in the morning except reference standard and on day 8th after fasted for 16 h all groups were administered with respective doses of the composition or standard drug Domperidone. Gastric emptying was measured by the use of phenol red method as described previously (Kawachi et al. 2011). […] The amount of phenol red in the supernatant was determined based on the absorbance at 570 nm measured using a microplate reader (Multiskan EX, Thermo Scientific). […] Gastric emptying was calculated using the formula: (1−amount of phenol red in the test sample/amount of phenol red in the standard sample)×100.
The percentage gastric emptying was assessed after 20 minutes of phenol red meal administration in rats. […]

male Sprague Dawley rats [2] = test: gastrointestinal transit (GIT); assay type: in vivo; settings: single dose (10 mg/kg), p<0.001
Description: as §1
as §2, with “sample)×100. […]” for “sample)×100.”
The composition in beadlet form was evaluated for efficacy in alleviating the delayed gastric emptying using an animal model. […]

[3] = body weight in the gastric emptying study; assay type: in vivo, Sprague Dawley rats; settings: 10 mg/kg orally
Description: A composition of asafoetida and milk thistle extract in a ratio of 1:3 was evaluated for effects on gastric emptying and gastrointestinal transit is Sprague-Dawley rats. Twenty-four male Sprague Dawley (SD) rats (190-200 g) were divided into four groups, each group consisted of six animals with less than 20% mean body weight range. Group I served as control group, Group II referenced standard Domiperidone, Groups III and IV were administered the composition. During experimentation, animals were housed under standard husbandry conditions at a temperature of 22±3° C., relative humidity (30-70%) and a light:dark cycle of 12:12 h. Animals were allowed free access to pellet feed and UV purified water.
Body weights of each animal group were measured at initiation of experiment, on day 7, and fasting on day 8.

## O=c1[nH]c2ccccc2n1CCCN1CCC(n2c(=O)[nH]c3cc(Cl)ccc32)CC1 [Domperidone]
Male Sprague Dawley rats [1]
  percentage gastric emptying: 78.86%
Male Sprague Dawley rats [2]
  GIT compared to control: significant increase
[3]; Day 7
  Body weight: 228.69 ± 12.07 g
[3]; Fasting (Day 8)
  Body weight: 211.9 ± 11.72 g
[3]; Initial
  Body weight: 209.68 ± 9.71 g
